Values quoted from earlier work as cited in the PKSmart pharmacokinetics tables (Seal et al. 2025).
Where a SMILES comes first, the peptide text is derived from it. Bridges are numbered along the chain shown (N, C = ends). [ ]: non-standard residue; d: D form. Mpa = O=C(O)CCS

Experiment: Lombardo, Berellini, Obach 2018, Drug Metab Dispos 46:1466, doi 10.1124/dmd.118.082966
Settings: human; for MRT / Vd / clearance / half-life: in vivo, iv; for fraction unbound: plasma

Row | Compound | MRT [h] | Vd [L/kg] | clearance [mL/min/kg] | half-life [h] | fraction unbound
1 | COc1nc(C(Cl)(Cl)Cl)c(Cl)c(OC)c1Cl | 5.1 | 9.1 | 29.9 | 3.8 | 
2 | N=C(N)N=c1[nH]c(CSCCC(=N)NS(N)(=O)=O)cs1 | 3 | 1.2 | 6.6 | 2.8 | 0.84
3 | O=c1[nH]cnc2[nH]ncc12 | 0.88 | 0.58 |  |  | 
4 | CC[N+]1(CC)CCC(=C(c2ccccc2)c2ccccc2)[C@@H]1C | 2.5 | 1.87 | 12.5 | 2.13 | 
5 | NC(Cc1ccccn1)c1ccccc1 (stereo not given) | 15.1 | 1.62 | 1.8 | 10.4 | 
6 | CCOc1ccccc1O[C@H](c1ccccc1)[C@H]1CNCCO1 | 13 | 0.65 | 0.82 | 10 | 
7 | CC(=O)OCC1=C(C(=O)O)N2C(=O)C(NC(=O)Cc3cccs3)[C@H]2SC1 (stereo not given in full) | 0.65 | 0.07 | 1.8 | 0.95 | 0.22
8 | N#C[C@H]1CC2C[C@H]2N1C(=O)C(N)C12CC3CC(CC(O)(C3)C1)C2 (stereo not given in full) | 4.1 | 1.8 | 7.1 | 7.5 | 1
9 | COc1cccc2c1C(=N)c1c(O)c3c(c(O)c1C2=O)C[C@@](O)(C(=O)CO)C[C@@H]3O[C@H]1C[C@H](N)[C@H](O)[C@H](C)O1 | 17.2 | 15.4 | 15 | 13.8 | 
10 | CCCN[C@H]1CCc2nc(N)sc2C1 | 16.1 | 7 | 7.2 | 12.4 | 0.85
11 | COCC(=O)Nc1c(I)c(C(=O)NCC(O)CO)c(I)c(C(=O)N(C)CC(O)CO)c1I (stereo not given) | 2.6 | 0.22 | 1.4 | 2.6 | 0.99
12 | OCCO[C@H]1C[C@@H](n2nnc3c(N[C@@H]4C[C@H]4c4ccc(F)c(F)c4)nc(S)nc32)[C@H](O)[C@@H]1O | 6.16 | 1.25 | 3.38 | 6.8 | 0.002
13 | CC(C)COC[C@@H](CN(Cc1ccccc1)c1ccccc1)N1CCCC1 | 19.3 | 10.1 | 8.7 | 14.9 | 0.001
14 | C[C@@H](Oc1cc(-c2cnn(C3CCNCC3)c2)cnc1N)c1c(Cl)ccc(F)c1Cl |  |  |  |  | 0.09
15 | CCN(CC)CC(=O)Nc1c(C)cccc1C | 1.9 |  |  |  | 
16 | OCCN1C[C@H](O)[C@@H](O)[C@H](O)[C@H]1CO | 2.7 | 0.28 | 1.7 | 2.3 | 
17 | C[N+]1(CC2CC2)[C@@H]2C[C@@H](OC(=O)C(CO)c3ccccc3)C[C@H]1[C@@H]1O[C@@H]12 (stereo not given in full) | 0.74 | 1.12 | 25 | 0.83 | 
18 | CC(C)(C)C(NC(=O)C(CC1CCCC1)CN(O)C=O)C(=O)N1CCN(Cc2ccc3c(c2)OCO3)CC1 (stereo not given) | 5.9 | 1.1 | 3.1 | 9.4 | 0.2

Row | Compound | MRT [h] | Vd [L/kg] | clearance [mL/min/kg] | half-life [h] | fraction unbound
19 | CCCCNc1cc(C(=O)O)cc(S(N)(=O)=O)c1Oc1ccccc1 | 1.1 | 0.16 | 2.5 | 1.2 | 
20 | COc1cccc2c1C(=O)c1c(O)c3c(c(O)c1C2=O)C[C@@](O)(C(=O)CO)C[C@@H]3O[C@H]1C[C@H](N)[C@H](OCc2ccccc2)[C@H](C)O1 | 43.2 | 48 | 18.5 | 34.6 | 
21 | CCN1CCC[C@H]1CNC(=O)c1c(O)c(Cl)cc(Cl)c1OC | 15.3 | 1.1 | 1.2 | 14 | 0.06
22 | FC(F)(F)C(F)(F)C(F)(F)F | 0.05 | 1.6 | 591 | 0.02 | 
23 | COc1ccc(CNC[C@@H](O)COc2ccc3[nH]c(=O)ccc3c2)cc1OC | 3.2 | 1.6 | 8.9 | 3.3 | 
24 | COc1ccccc1N1CCN(CCCNc2cc(=O)n(C)c(=O)n2C)CC1 | 4 | 0.75 | 3.1 | 3.5 | 
25 | O=C(NCCN1CCN=C1c1ccncc1)Nc1ccc(C(=O)O)cc1 | 3.52 | 0.35 | 1.67 | 4.9 | 
26 | CN(C)CCCNC(=O)/C(=C/CCCCC(O)=NO)COc1cccc2ccccc12 | 4.1 | 0.45 | 1.82 | 2.1 | 
27 | C[C@@H]1C[C@H]2C3C[C@H](F)C4=CC(=O)C=C[C@]4(C)[C@@]3(F)[C@@H](O)C[C@]2(C)[C@@]1(OC(=O)c1ccco1)C(=O)SCF (stereo not given in full) |  | 4.95 | 13.4 | 10.6 | 
28 | CCCc1c(OCCCS(=O)(=O)c2ccc(C(=O)CCC(=O)O)cc2)ccc(C(C)=O)c1O |  |  | 17.4 | 0.04 | 
29 | CN1Cc2c(N)cccc2C(c2ccccc2)C1 (stereo not given) | 4.5 | 6 | 22 | 6.5 | 
30 | O=C1NC(=O)C(c2cn3ccccc3n2)=C1C1=CN2CCN(C(=O)N3CCCCC3)C[C@@H]3C=C(F)C=C1[C@H]32 | 1.9 | 1.2 | 10.3 | 2.7 | 0.02
31 | CC1(C)S[C@@H]2C(NC(=O)COc3ccccc3)C(=O)N2C1C(=O)O (stereo not given in full) | 1 | 0.41 | 6.8 | 0.84 | 
32 | Nc1nc2c(ncn2COC(CO)CO)c(=O)[nH]1 | 3.7 | 1 | 4.6 | 3.7 | 
33 | CNC(=O)CC(N)C(=O)NC(C(=O)NC1C(=O)N2C(C(=O)O)C(C)(C)S[C@H]12)c1ccc(O)cc1 (stereo not given in full) | 1.61 | 0.27 | 2.82 | 1.45 | 
34 | COc1ccc2cc1Oc1ccc(cc1)C[C@H]1c3cc(c(OC)cc3CCN1C)Oc1c(OC)c(OC)c(Br)c3c1[C@H](C2)N(C)CC3 | 88.2 | 51 | 9.6 | 59.4 | 0.22
35 | N=C(N)NCCCC1NC(=O)CCSSCC(C(N)=O)NC(=O)C2CCCN2C(=O)C(Cc2c[nH]c3ccccc23)NC(=O)C(CC(=O)O)NC(=O)CNC1=O (stereo not given) ([Mpa]RGDWPC-NH2; disulfide 1-7; configuration not given here) | 2.45 | 0.42 | 2.88 | 2.12 | 
